From patent US8637461B2, “Method of diagnosing and treating oxidative stress-impaired wound healing” (Kuwait University, priority 2011, dated 2014)

Tests used:
Akt = Akt phosphorylation, FACE cell-based ELISA in fixed fibroblasts; parameters: species or system rat; conditions: diabetic, TNF-α- or dexamethasone-exposed cells, EUK-134
Experimental: (§1) Primary dermal fibroblasts were obtained from dorsal skin of female Goto Kakizaki (GK, age 12-15 months) rats, a model for non-obese type 2 diabetes, and their Wistar control counterparts. After sterilization in povidine solution, rat skin was washed in sterile water and rinsed in 70% ethanol in PBS. Epidermis and dermis were separated following overnight incubation in 0.25% trypsine/EDTA at 4 C. Dermis was cut into small pieces and incubated in Dulbecco's modified Eagle medium (DMEM; Invitrogen) containing collagenase (250 U/ml; Sigma) for thirty min at 37 C in 5% CO2 with constant agitation. The sections were triturated vigorously to release fibroblasts, which were collected by centrifugation. […]
(§2) A hypercortisolemic state was mimicked by exposing control fibroblasts to dexamethasone (Dexa, Sigma) administered at 20 ng/ml every other day for a duration of 8 days. […] The concentration of IGF-1 (50 ng/ml, Peprotech) was determined by prior dose response experiment.
Activation of Akt and JNK was analyzed in fixed fibroblasts using FACE-Akt and FACE-JNK (both from Active Motife). […] Labeling with antibodies was conducted according to the manufacturer's protocol and the resulting phosphoantibody signal was calculated after correction for number of cells and total Akt or JNK levels in each sample. […]

[1] = system: reactive oxygen species (ROS); assay: ROS generation in cultured fibroblasts (DCF-DA); assay type: cell-based, rat
Experimental: Primary dermal fibroblasts were obtained from dorsal skin of female Goto Kakizaki (GK, age 12-15 months) rats, a model for non-obese type 2 diabetes, and their Wistar control counterparts. After sterilization in povidine solution, rat skin was washed in sterile water and rinsed in 70% ethanol in PBS. Epidermis and dermis were separated following overnight incubation in 0.25% trypsine/EDTA at 4 C. Dermis was cut into small pieces and incubated in Dulbecco's modified Eagle medium (DMEM; Invitrogen) containing collagenase (250 U/ml; Sigma) for thirty min at 37 C in 5% CO2 with constant agitation. The sections were triturated vigorously to release fibroblasts, which were collected by centrifugation. The cell pellet was washed two times with PBS, re-suspended in complete medium (DMEM supplemented with 10% fetal calf serum, penicillin (100 U/ml), streptomycin (100 μg/ml)), 2 mM L-glutamine and 10 mM HEPES) and then cultured under a standard condition.
as §2, with “days. Similarly, the state of low-grade inflammation in fibroblasts was recapitulated experimentally by exposing these cells to TNF-α (4 ng/ml every day for 4 days).” for “days.”
ROS generation in cultured fibroblasts was evaluated using dichloroflurescein-diacetate (DCF-DA, Molecular Probes), a probe that is oxidized to the fluorescent product DCF upon exposure to hydrogen peroxide, peroxynitrite, hydroxyl radical and nitric oxide. Its concentration serves as an indicator of the overall degree of intracellular oxidative stress.
Cells seeded in 96-well plates were incubated for thirty minutes at 37 C in serum free media containing 5 μM of DCF-DA. The plates were then washed twice with Krebs Ringer Buffer (KR) and the fluorescence readings were taken every 15 min for 1 hr at Ex=485 and Em=530. Subtracted background values were obtained from wells containing DCF-DA without cells. […]

protein-bound carbonyls = assay: Protein-bound carbonyl ELISA in fibroblasts; assay type: cell-based, rat; conditions: diabetic, TNF-α- or dexamethasone-exposed cells; EUK-134
Experimental: as §1, §2
Protein-bound carbonyl levels in fibroblasts, a marker of cumulative oxidative stress, were determined using a procedure in which a sensitive ELISA-based assay was used to measure total protein-bound carbonyls using oxidized bovine serum albumin (BSA) as standard. […]

dermal fibroblasts = assay: Radiolabelled proline uptake assay (collagen synthesis) in fibroblasts; assay type: cell-based, rat; conditions: diabetic, TNF-α- or dexamethasone-exposed cells; EUK-134
Experimental: as §1, §2
The proliferation and collagen synthesis of cultured fibroblasts were determined using, respectively the 5-bromo-2-deoxyuridine (BrdU) incorporation into DNA and a radiolabelled proline uptake assay.
A radiolabel proline uptake assay was used in the quantification of the rate of collagen synthesis in cultured fibroblasts derived from various experimental groups. […]

[2] = Rapid insulin sensitivity test (RIST) with IGF-1 instead of insulin; assay type: in vivo, rat; conditions: diabetic/hypercortisolemic rats, chronic administration of antioxidant
Experimental: All animal procedures were performed in accordance with the NIH Guidance for the Care and Use of Laboratory Animals. The current study used, respectively the GK and Dexamethasone-treated rats as models for diabetes and hypercortisolemia. Dexamethasone was administered subcutaneously at a dose of 2.5 μg/kg body weight in the morning (8:00 AM) and in the evening (8:00 PM) for a duration of four weeks before wounding and this form of therapy continued during the course of healing. […] Weight and age-matched female Wistar rats (Kuwait University breeding colony) served as the corresponding controls. All of the animals were maintained under standard conditions with 12 hours on/off light cycle, commercial diet, and water ad libitum. GK rats destined for wounding were initially matched with regard to body weight (e.g., 230 to 250 g), and plasma levels of glucose, free fatty acids and insulin. These indices are commonly used to reflect the severity of the diabetic state.
Animals used for IGF-1 sensitivity (n=6/group) and wound healing (n=8) studies were partitioned into five study groups including control, diabetic, hypercortisolemic, diabetic+EUK and hypercortisolemic+EUK. The EUK-134 was administered for duration of four weeks before wound induction and it continued during the course of healing.
IGF-1 sensitivity in control, diabetic and hypercortisolemic animals was determined using the rapid insulin sensitivity test (RIST) with IGF-1 (200 μg/kg BW) infused instead of insulin. The RIST index is the amount of glucose per kg body weight required to maintain euglycemia following a bolus of insulin (50 mU/kg BW).

COc1cccc(C=NCCN=Cc2cccc(OC)c2[O-])c1[O-].[Cl-].[Mn+3] [EUK-134]
Akt phosphorylation in response to IGF-1 (Akt): partially restored
reactive oxygen species (ROS) levels ([1]; diabetic, TNF-α- or dexamethasone-exposed cells, EUK-134): approximately restores normal ROS levels
HSOS (oxidative stress) ([1]; fibroblasts with diabetic, inflammatory or hypercortisolemia phenotypes, ROS suppressors): lessen the HSOS
carbonylated protein accumulation (protein-bound carbonyls): returned to approximately normal
proline uptake (collagen synthesis) (dermal fibroblasts): returns it to approximately control levels
improvement of glucose metabolism in response to bolus injection of IGF-1 [2]: about 20%
